Read-outs that look alike come from different tables or passages of the source.
Columns and labels:
[1] = BYL-719 induced hyperglycemia in C57Bl/6 mice, ZGN-1061 pre-treatment; type: in vivo
Experimental: The following is an example showing that MetAP2 inhibitors, specifically ZGN-1061 can be used in combination with PI3K inhibitors, specifically BYL-719, to treat cancer and to attenuate treatment-induced metabolic dysfunction. In this example, male C57BI/6 mice, age 10-12 weeks, were used. The mice (n=8/treatment group) were administered doses of either vehicle control (10 mM phosphate in 5% mannitol, pH 7.2), ZGN-1061 alone, ZGN-1061 in combination with BYL-719 or BYL-719 alone, as indicated in Table 4. In Table 4, the time of dose indicates the time relative to the administration of BYL-719. Blood glucose was monitored using 10 ul of blood taken from the tail of the mice and a glucometer, starting prior to the BYL-719 administration (time 0) and then again at various times points (15, 30, 60, 90, 120 and 180 minutes) after the administration of BYL-719.

[2] = cited from earlier work
[3] = cited from earlier work; remark: listed apart in the source
[4] = human, in vivo; cited from earlier work
[5] = requires extended intravenous administration; cited from earlier work

In the case of `CO[C@@H]1[C@H](OC(=O)N2CC(CCN3CCOCC3)C2)CC[C@]2(CO2)[C@H]1[C@@]1(C)O[C@@H]1CC=C(C)C` [ZGN-1061], the “hyperglycemia induced by BYL-719” value ([1]; pre-treatment 0.5 mg/kg SC at -4 h, -24 h or -72 h (QD x3) before BYL-719 45 mg/kg PO) is reported as “attenuated hyperglycemia”.

For `CO[C@@H]1[C@H](OC(=O)/C=C/c2ccc(OCCN(C)C)cc2)CC[C@]2(CO2)[C@H]1[C@@]1(C)O[C@@H]1CC=C(C)C` [CKD-732], the MTD ([2]; every fourth day schedule, confusion and insomnia) is listed as 15 mg/m2/day and the body weight ([3]; C57BL/6J mice and SD rats, 5 mg/kg/day) is listed as “weight loss”.

For `Cc1nc(NC(=O)N2CCC[C@H]2C(N)=O)sc1-c1ccnc(C(C)(C)C(F)(F)F)c1` [BYL-719, alpelisib], the blood glucose ([1]; BYL-719 45 mg/kg PO, male C57Bl/6 mice) was “elicited robust hyperglycemia”.

For pembrolizumab, the “patients with grade 3 or 4 hyperglycemia” value [4] is listed as 3-6% and the “patients with hyperglycemic events” value [4] is listed as 45-49%.

For `CO[C@@H]1[C@H](OC(=O)/C=C/C=C/C=C/C=C/C(=O)O)CC[C@]2(CO2)[C@H]1[C@@]1(C)O[C@@H]1CC=C(C)C` [fumagillin], the body weight ([3]; C57BL/6 mice, oral 1 mg/kg daily) is given as “weight loss”.

In the case of `CO[C@@H]1[C@H](OC(=O)NC(=O)CCl)CC[C@]2(CO2)[C@H]1[C@@]1(C)O[C@@H]1CC=C(C)C` [TNP-470, chloroacetylcarbamoylfumagillol], the half-life [5] is given as “short half-life”, the toxicity in humans ([2]; dose-limiting neurotoxicity) is given as “too toxic for human use” and the MTD ([2]; in combination with paclitaxel, dosed three times per week, neuropsychiatric toxicities) is given as 60 mg/m2. The obesity ([3]; mice, 15 or 20 mg/kg every other day) was “prevention of obesity” and the body weight ([3]; ob/ob mice, daily doses 2.5 mg/kg to 10 mg/kg) was “weight loss”.
